The results in this text go back to BindingDB's records for doi:10.1124/jpet.300.2.478 (Abbott Laboratories, 2002).

For experiment [1], the target named is T1, Alpha-1B adrenergic receptor (Homo sapiens, UniProt P35368).
T1 sequence (P35368 whole entry): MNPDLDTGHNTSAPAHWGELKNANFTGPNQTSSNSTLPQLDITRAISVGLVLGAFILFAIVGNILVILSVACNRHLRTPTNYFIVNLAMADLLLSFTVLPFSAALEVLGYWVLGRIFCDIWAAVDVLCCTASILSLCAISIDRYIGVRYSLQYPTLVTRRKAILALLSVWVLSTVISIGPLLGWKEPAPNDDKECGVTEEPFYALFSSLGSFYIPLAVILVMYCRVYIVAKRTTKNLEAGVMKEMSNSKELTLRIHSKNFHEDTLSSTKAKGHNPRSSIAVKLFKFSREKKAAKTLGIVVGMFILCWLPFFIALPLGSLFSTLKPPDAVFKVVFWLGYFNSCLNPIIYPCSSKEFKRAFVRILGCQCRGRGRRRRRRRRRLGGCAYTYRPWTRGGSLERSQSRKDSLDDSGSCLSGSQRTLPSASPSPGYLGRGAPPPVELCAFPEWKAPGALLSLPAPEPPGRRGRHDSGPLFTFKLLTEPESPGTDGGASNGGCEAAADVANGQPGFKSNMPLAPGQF

Experiment [2] concerns the target T2, Alpha-1D adrenergic receptor (Homo sapiens, UniProt P25100).
T2 sequence (P25100 whole entry): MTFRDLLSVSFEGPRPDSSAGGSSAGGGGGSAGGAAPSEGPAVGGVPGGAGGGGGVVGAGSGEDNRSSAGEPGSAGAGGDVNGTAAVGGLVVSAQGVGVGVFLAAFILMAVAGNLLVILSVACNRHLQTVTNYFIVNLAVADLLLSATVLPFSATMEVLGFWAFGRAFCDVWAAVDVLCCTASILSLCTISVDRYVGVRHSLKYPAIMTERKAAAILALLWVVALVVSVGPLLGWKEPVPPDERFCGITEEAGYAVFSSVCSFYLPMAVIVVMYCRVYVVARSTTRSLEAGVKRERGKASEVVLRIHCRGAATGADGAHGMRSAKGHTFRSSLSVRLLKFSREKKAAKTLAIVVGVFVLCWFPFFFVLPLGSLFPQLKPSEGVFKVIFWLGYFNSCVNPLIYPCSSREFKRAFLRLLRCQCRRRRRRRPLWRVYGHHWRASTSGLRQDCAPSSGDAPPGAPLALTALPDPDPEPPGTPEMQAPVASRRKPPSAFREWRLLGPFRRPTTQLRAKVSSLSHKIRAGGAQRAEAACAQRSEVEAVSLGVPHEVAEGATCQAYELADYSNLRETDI

On to `CCOc1ccccc1OCCN[C@H](C)Cc1ccc(OC)c(S(N)(=O)=O)c1` [5-[(2R)-2-{[2-(2-ethoxyphenoxy)ethyl]amino}propyl]-2-methoxybenzenesulfonamide], for which the values for the Ki in experiment [1] and in experiment [2] were 0.6 nM and 0.056 nM, respectively.
`COc1cc2nc(N3CCN(C(=O)C4CCCO4)CC3)nc(N)c2cc1OC` (stereo not given) [6,7-dimethoxy-2-[4-(tetrahydrofuran-2-ylcarbonyl)piperazin-1-yl]quinazolin-4-amine] came in with a Ki in experiment [2] of 0.66 nM.
Take `COc1cccc2c1C1CN(CCCCn3c(=O)[nH]c4c(sc5ncc(-c6ccccc6)nc54)c3=O)CC1CO2` (stereo not given) [CAS_172307]: the results for the Ki in experiment [1] and in experiment [2] were 25.1 nM and 0.91 nM, respectively.

By Ki is commonly meant a dissociation constant, usually derived from enzyme kinetics or from competition with a known ligand.
